Here are results for two compounds from patent US7829280B2, “Process for reducing interferences in luciferase enzyme assays” (LuminUltra Technologies Ltd., priority 2007, dated 2010).

Experiment [1] deals with T1, luciferase (Photinus pyralis, UniProt P08659). Briefly: Luciferase assay for ATP in ADBAC extract of wastewater effluent (different date), 2 mL resin or two 1 mL portions. The experiment is classed as biochemical, firefly. The note with it: no extract pre-treatment. How it is done: Further dilutions were made in a phosphate buffer. The chelating resin was IRC-748. The resin treatment consisted of mixing 2 mL of resin with 3 mL of extract, then allowing the resin beads to settle before ATP analysis. In a variation of this analysis, 3 mL of sample were treated with 1 mL of resin and the supernatant of this treatment was treated to a second 1 mL portion of resin prior to ATP analysis.
T1 sequence (P08659 whole entry): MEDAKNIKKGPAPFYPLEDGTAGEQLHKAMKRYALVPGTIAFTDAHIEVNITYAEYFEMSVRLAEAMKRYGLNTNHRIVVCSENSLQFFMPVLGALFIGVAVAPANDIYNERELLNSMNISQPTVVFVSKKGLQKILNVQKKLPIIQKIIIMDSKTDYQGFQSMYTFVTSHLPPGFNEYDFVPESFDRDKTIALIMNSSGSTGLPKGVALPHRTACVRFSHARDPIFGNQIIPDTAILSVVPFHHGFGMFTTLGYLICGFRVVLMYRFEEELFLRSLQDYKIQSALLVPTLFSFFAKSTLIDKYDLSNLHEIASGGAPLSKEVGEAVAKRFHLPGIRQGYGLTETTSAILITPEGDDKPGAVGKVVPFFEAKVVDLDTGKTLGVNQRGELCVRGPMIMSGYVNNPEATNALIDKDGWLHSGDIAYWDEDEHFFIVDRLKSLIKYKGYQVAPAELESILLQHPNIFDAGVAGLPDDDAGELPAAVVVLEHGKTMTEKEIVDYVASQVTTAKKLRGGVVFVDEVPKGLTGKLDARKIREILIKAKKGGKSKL

For experiment [2], the target named is T2, firefly luciferase (Photinus pyralis, UniProt P08659). Briefly: Firefly luciferase assay of ATP standard solution containing ADBAC, with and without chelating resin pre-treatment. The experiment is classed as biochemical. The settings on record: phosphate buffer ATP solution containing 1000 mg/L ADBAC. How it is done: The light produced in this reaction was measured in a luminometer (Kikkoman C-100 Lumitester). Several dilutions of this ATP solution were also prepared in phosphate buffer and tested. In addition, a 3 mL portion of this solution was mixed with 1 mL of a chelating resin (IRC748, Rohm and Haas Company) and similarly diluted in phosphate buffer, then assayed for ATP.
T2 sequence (P08659 whole entry): as above

Experiment [3] has as its target T2, firefly luciferase. Kind of experiment: Firefly luciferase assay for ATP in ADBAC extract of wastewater effluent, with and without chelating resin. Format: biochemical. The procedure:
The ATP released by this process was measured in a Kikkoman luminometer by mixing 100 microliters of the mixture and combining it with 100 microliters of a luciferase assay mixture. Several dilutions of this ATP extract were also prepared in phosphate buffer and tested. In addition, a 3 mL portion of the ATP extract was mixed with 1 mL of a chelating resin (IRC748, Rohm and Haas Company) and similarly diluted in phosphate buffer, then assayed for ATP.
Further dilutions were made in a phosphate buffer. The chelating resin was IRC-748. The resin treatment consisted of mixing 1 mL of resin with 3 mL of extract, then allowing the resin beads to settle before ATP analysis.

The target of experiment [4] is T1, luciferase. Briefly: Luciferase activity in ATP standard spiked with ADBAC after treatment with various resins. The experiment is classed as biochemical, firefly. The settings on record: 10 ng/mL ATP. How it is done: The experiment was conducted in the same format as described for the first experiment by testing an ATP standard solution spiked with ADBAC. The dilution required to remove inhibition following treatment with an ion-exchange resin was the same as the test condition in which no resin treatment was applied. In contrast, a ¼ fold dilution removed almost all of the inhibition in the solution that had been pre-treated with the chelating resin. Again, the luciferase activity in an undiluted solution treated with the chelating resin provided a response many times greater than untreated solution or solution treated with ion exchange resins.
It should be noted that Table 4 is constructed from results of 2 different experiments. In order to facilitate comparison, the results are expressed as enzyme activity instead of instrument reading. Luciferase activity was calculated by dividing the RLU of each test condition by the RLU of an uninhibited reaction and expressing the results as a percentage.

For experiment [5], the target named is T2, firefly luciferase. Kind of experiment: Combined treatment with soluble (β-cyclodextrin) and insoluble (IRC-748) neutralizers of ADBAC inhibition of firefly luciferase. Format: biochemical. The settings on record: β-cyclodextrin 3,750 mg/L, resin 1 part per 3 parts. How it is done: Four dilution series were prepared from this stock solution. One series was diluted only in a phosphate buffer. Another identical series was prepared in the phosphate buffer but was pre-treated with IRC-748 chelating resin (3 parts solution treated with one part resin) prior to assaying for ATP. […] The fourth series was prepared in the same way as the third series, except that each member of the series was pre-treated with IRC-748 chelating resin (3 parts solution treated with one part resin) prior to assaying for ATP. All solutions were assayed for ATP by mixing 100 microliters of solution with 100 microliters of luciferase reagent and measuring the light produced in a Kikkoman luminometer.
The experiment described in Example 5 compares the ability of a soluble agent (β-cyclodextrin) and an insoluble agent (chelating resin, IRC-748) and their combination to neutralize the inhibition of the bioluminescent reaction catalyzed by firefly luciferase.
A concentrate of cyclodextrin was added to the ATP solutions in some of the tests to maintain concentration of 3,750 mg/L through the dilution series.

Regarding “alkyl dimethybenzyl ammonium chloride [ADBAC]”, the RLU in experiment [1] (dilution of ADBAC in ATP extract 1/16) is reported as 3100 RLU; in experiment [1] (dilution of ADBAC in ATP extract 1/32) it was 1551 RLU; in experiment [1] (dilution of ADBAC in ATP extract ¼) it was 7,310 RLU; in experiment [1] (dilution of ADBAC in ATP extract ½), 209 RLU; in experiment [1] (dilution of ADBAC in ATP extract ⅛), 6064 RLU; in experiment [3] (dilution of ADBAC (1000 mg/L) in ATP extract 1/16, resin 1 mL per 3 mL extract), 4,628 RLU. Also, the RLU in experiment [3] (dilution of ADBAC (1000 mg/L) in ATP extract 1/32, resin 1 mL per 3 mL extract) is listed as 2,401 RLU; in experiment [3] (dilution of ADBAC (1000 mg/L) in ATP extract ¼, resin 1 mL per 3 mL extract) it was 4,658 RLU; in experiment [3] (dilution of ADBAC (1000 mg/L) in ATP extract ½, resin 1 mL per 3 mL extract), 1,489 RLU. Moreover, the “dilution factor needed to overcome luciferase inhibition” value in experiment [2] stood at 8. Besides, the “Luciferase Activity (% of activity in the absence of ADBAC)” value in experiment [4] (dilution 1/16, 1000 mg/L ADBAC stock in phosphate buffer) was determined as 100%; in experiment [4] (dilution None, 1000 mg/L ADBAC in phosphate buffer), 0.01%; in experiment [4] (dilution ¼, 1000 mg/L ADBAC stock in phosphate buffer) it was 33%; in experiment [4] (dilution ½, 1000 mg/L ADBAC stock in phosphate buffer), 6.7%; in experiment [4] (dilution ⅛, 1000 mg/L ADBAC stock in phosphate buffer), 100%.

`OC[C@H]1O[C@@H]2O[C@H]3[C@H](O)[C@@H](O)[C@@H](O[C@H]4[C@H](O)[C@@H](O)[C@@H](O[C@H]5[C@H](O)[C@@H](O)[C@@H](O[C@H]6[C@H](O)[C@@H](O)[C@@H](O[C@H]7[C@H](O)[C@@H](O)[C@@H](O[C@H]8[C@H](O)[C@@H](O)[C@@H](O[C@H]1[C@H](O)[C@H]2O)O[C@@H]8CO)O[C@@H]7CO)O[C@@H]6CO)O[C@@H]5CO)O[C@@H]4CO)O[C@@H]3CO` [β-cyclodextrin]: the RLU is 606 RLU in experiment [5] (dilution 1/16 of 7200 mg/L ADBAC, 1 ng ATP per mL stock); 96 RLU in experiment [5] (dilution ¼ of 7200 mg/L ADBAC, 1 ng ATP per mL stock); 3 RLU in experiment [5] (dilution ½ of 7200 mg/L ADBAC, 1 ng ATP per mL stock (3600 mg/L ADBAC, 0.5 ng/mL ATP)); 1227 RLU in experiment [5] (dilution ⅛ of 7200 mg/L ADBAC, 1 ng ATP per mL stock).
